We go through 21 molecules from patent US4472421A, “Azole antimycotics and their use in treating skin conditions caused by Pityrosporum ovale” (Bayer Aktiengesellschaft, priority 1974, dated 1984).

SMILES strings stand for the structures. Converted amounts (≈) assume the structure as drawn. Structures can show the parent of a compound that is named as a salt. Where two headings read alike, the source gives them in different places.

The subject of this assay is Pityrosporum ovale. In words: MIC and PI determination on Abbe's medium agar slants, dilution series. In kind it is cell-based. The note with it: Malassezia furfur, 28° C. Here is the method:
Pityrosporum ovale was cultured and the MIC determinations were carried out with a large number of azole derivatives. The growth of Pityrosporum ovale is considerably slower than, for example, of species of Candida or Torulopsis--it takes 3 to 5 days. It requires Abbe's medium as a special nutrient medium.
1. Setting up the dilution series of each preparation: 6.4 mg of preparation are dissolved in 1 ml of analytical grade dimethylformamide and 9 ml of distilled water are added. 1 ml now contains 640 mcg of preparation. If 2 ml are withdrawn and added to 2 ml of H2 O, the resulting concentration is 320 mcg/ml. If this is continued progressively,the following dilution series, in mcg/ml, is obtained: 640-320-160-80-40-20-10-5-2.5-1.25-0.625-0.313-0.156-0.078-0.039-0.02-0.01
2. Charging the test tubes: 0.5 ml portions of the particular dilution are introduced into test tubes.
3. Charging with nutrient medium: Abbe's medium is used.
200 ml portions of Abbe's medium are introduced into nutrient medium flasks. For use, the previously calculated amount of Abbe's medium is liquefied in a steaming pot and cooled until only warm to the touch; 4.5 ml are then added to each test tube. A second person receives each test tube and twirls it between his hands, like a kitchen whisk. This achieves good mixing of the diluted preparation with the nutrient medium. Each test tube is then immediately brought into a slanting position, in the same way as is usually employed to prepare agar slants.
The culture control and the nutrient medium control are each 1 test tube in which 0.5 ml of H2 O is introduced in place of the preparation.
4. Inoculation with Pityrosporum ovale: A culture which had been grown for 3 weeks in Benham's fluid medium at 28° C. was used.
After the nutrient medium has solidified thoroughly in all the test tubes, 0.1 ml of culture is allowed to run over each slant, except for the test tube of the nutrient medium control. 0.1 ml of physiological NaCl solution is added to the latter.
5. Incubation and readings: The incubation is carried out at 28° C. After 3 days, the culture control test tubes show germ growth, which reaches an optimum after 5 days.
The MIC=minimum inhibitory concentration, and the PI=partial inhibition (retardation of growth by about 90% relative to the control, that is to say only about 10% of the germs have grown) are read off in comparison to the control.
Of course,--as is usual in microbiology--all the work was carried out under sterile conditions, that is to say, using, for example, sterile test tubes, pipettes, nutrient media and the like.

Setting [1] is: 72 h, reading after 3 days, read-out: MIC (minimum inhibitory concentration), reading after 3 days.
The mark [2] stands for this setting: 120 h, reading after 5 days, read-out: MIC (minimum inhibitory concentration), reading after 5 days.
The mark [3] stands for this setting: 72 h, reading after 3 days, read-out: PI (partial inhibition, growth reduced by at least 90% compared to the control), reading after 3 days.
[4] abbreviates: 120 h, reading after 5 days, read-out: PI (partial inhibition, growth reduced by at least 90% compared to the control), reading after 5 days.

As to `CC(C)(C)C(=O)C(Oc1ccc(Cl)cc1)n1ccnc1` (stereo not drawn) [Example 1, [1-imidazolyl-(1)]-[1-(4'-chloro)phenoxy]-3-dimethyl-butane-2-one], the MIC under setting [1] is less than 1 µg/mL and the MIC under setting [2] is less than 1 µg/mL.
In the case of `CC(C)(C)C(=O)C(Oc1ccc(Cl)cc1Cl)n1ccnc1` (stereo not drawn) [Example 2], the MIC runs as follows: under setting [1], less than 1 µg/mL; under setting [2], less than 1 µg/mL.
For the molecule `CC(C)(C)C(=O)C(Oc1ccc(Br)cc1)n1ccnc1` (stereo not drawn) [Example 3], the MIC is less than 1 µg/mL under setting [1] and less than 1 µg/mL under setting [2].
Consider `CC(C)(C)C(=O)C(Oc1ccc(-c2ccc(Cl)cc2)cc1)n1ccnc1` (stereo not drawn) [Example 4, [1-imidazolyl-(1)]-[1-(4'-(4"-chlorophenyl)-phenoxy]-3,3-dimethyl-butan-2-one hydrochloride], for which the MIC under setting [1] was less than 1 µg/mL and the MIC under setting [2] is less than 1 µg/mL.
As for `CC(C)(C)C(=O)C(Cn1ccnc1)Oc1ccc(Cl)cc1Cl` (stereo not drawn) [Example 5, hydrochloride], the MIC amounted to 2 µg/mL under setting [1] and 2 µg/mL under setting [2]. For the same molecule, the IC90 was less than 1 µg/mL under setting [3] and less than 1 µg/mL under setting [4].
Take `CC(C)(C)C(O)C(Oc1ccc(-c2ccccc2)cc1)n1ccnc1` (stereo not drawn) [Example 7]: the MIC is, setting by setting: under setting [1], 4 µg/mL (≈ 11.9 µM); under setting [2], 8 µg/mL (≈ 23.8 µM). Also, the IC90 came to 2 µg/mL (≈ 5.94 µM) under setting [3] and 2 µg/mL (≈ 5.94 µM) under setting [4].
Regarding `CC(C)(C)C(=O)C(Cn1ccnc1)Oc1ccc(Cl)cc1` (stereo not drawn) [Example 8], the MIC is, setting by setting: under setting [1], 4 µg/mL (≈ 13 µM); under setting [2], 8 µg/mL (≈ 26.1 µM). The IC90 by setting is: under setting [3], 2 µg/mL (≈ 6.52 µM); under setting [4], 4 µg/mL (≈ 13 µM).
Turning to `Cc1ccccc1C1(n2ccnc2)c2ccccc2-c2ccccc21` [Example 9], the MIC came to 8 µg/mL (≈ 24.8 µM) under setting [1] and 8 µg/mL (≈ 24.8 µM) under setting [2]. Besides, the IC90 is, setting by setting: under setting [3], 2 µg/mL (≈ 6.2 µM); under setting [4], 4 µg/mL (≈ 12.4 µM).
In the case of `C#CC(c1ccccc1)(c1ccccc1)n1ccnc1` [Example 10], the MIC under setting [1] was found to be 8 µg/mL (≈ 31 µM) and the MIC under setting [2] is 16 µg/mL (≈ 61.9 µM). Moreover, the IC90 by setting is: under setting [3], less than 1 µg/mL; under setting [4], less than 1 µg/mL.
As for `COC(=O)C(c1ccccc1)(c1ccccc1)n1ccnc1` [Example 11], the MIC reads like this: under setting [1], 16 µg/mL (≈ 54.7 µM); under setting [2], 16 µg/mL (≈ 54.7 µM). Further, the IC90 was less than 1 µg/mL under setting [3] and less than 1 µg/mL under setting [4].
For the molecule `CC(C)(C)C(=O)C(Cn1ccnc1)Oc1ccc(-c2ccccc2)cc1` (stereo not drawn) [Example 12], the MIC worked out at 8 µg/mL (≈ 23 µM) under setting [1] and 8 µg/mL (≈ 23 µM) under setting [2]. The IC90 was less than 1 µg/mL under setting [3] and less than 1 µg/mL under setting [4].
Consider `Clc1ccccc1C(c1ccccc1)(c1ccccc1)n1ccnc1` [Example 13], for which the MIC under setting [1] worked out at 16 µg/mL (≈ 46.4 µM) and the MIC under setting [2] was 16 µg/mL (≈ 46.4 µM). Moreover, the IC90 under setting [3] was found to be 8 µg/mL (≈ 23.2 µM) and the IC90 under setting [4] amounted to 8 µg/mL (≈ 23.2 µM).
Consider `CCC(c1ccccc1)(c1ccccc1)n1ccnc1` [Example 14], for which the MIC was 32 µg/mL (≈ 122 µM) under setting [1] and 32 µg/mL (≈ 122 µM) under setting [2]. Further, the IC90 was found to be 4 µg/mL (≈ 15.2 µM) under setting [3] and 4 µg/mL (≈ 15.2 µM) under setting [4].
Turning to `CC(=O)C(c1ccccc1)(c1ccccc1)n1ccnc1` [Example 15], the MIC reads like this: under setting [1], 32 µg/mL (≈ 116 µM); under setting [2], 64 µg/mL (≈ 232 µM). Also, the IC90 under setting [3] was found to be 4 µg/mL (≈ 14.5 µM) and the IC90 under setting [4] is 4 µg/mL (≈ 14.5 µM).
For the molecule `Clc1ccc(C(c2ccccc2)(c2ccccc2)n2ccnc2)cc1` [Example 16], the MIC under setting [1] was greater than 64 µg/mL and the MIC under setting [2] is greater than 64 µg/mL. Also, the IC90 worked out at 16 µg/mL (≈ 46.4 µM) under setting [3] and 16 µg/mL (≈ 46.4 µM) under setting [4].
For `Clc1cccc(C(c2ccccc2)(n2ccnc2)n2ccnc2)c1` [Example 17], the MIC reads like this: under setting [1], greater than 64 µg/mL; under setting [2], greater than 64 µg/mL. Further, the IC90 reads like this: under setting [3], 32 µg/mL (≈ 95.6 µM); under setting [4], 32 µg/mL (≈ 95.6 µM).
With `CC1(n2ccnc2)c2ccccc2CCc2ccccc21` [Example 18], the MIC under setting [1] was greater than 64 µg/mL and the MIC under setting [2] was greater than 64 µg/mL. For the same molecule, the IC90 reads like this: under setting [3], 32 µg/mL (≈ 117 µM); under setting [4], 32 µg/mL (≈ 117 µM).
`CC(C)(C)C(O)C(Oc1ccc(Cl)cc1Cl)(c1ccccc1)n1ccnc1` (stereo not drawn) [Example 19]: the MIC runs as follows: under setting [1], greater than 64 µg/mL; under setting [2], greater than 64 µg/mL. In addition, the IC90 is 64 µg/mL (≈ 158 µM) under setting [3] and 64 µg/mL (≈ 158 µM) under setting [4].
In the case of `Brc1cccc(C(c2ccccc2)(n2ccnc2)n2ccnc2)c1` [Example 20], the MIC reads like this: under setting [1], greater than 64 µg/mL; under setting [2], greater than 64 µg/mL. The IC90 under setting [3] amounted to 64 µg/mL (≈ 169 µM) and the IC90 under setting [4] turned out to be 64 µg/mL (≈ 169 µM).
Consider `Cn1ccnc1C(c1ccccc1)(c1ccc(-c2ccccc2)cc1)n1ccnc1` (stereo not drawn) [Example 21], for which the MIC was greater than 64 µg/mL under setting [1] and greater than 64 µg/mL under setting [2].
Consider `Brc1cccc(C(c2ccccc2)(n2cncn2)n2cncn2)c1` [Example 22], for which the MIC reads like this: under setting [1], greater than 64 µg/mL; under setting [2], greater than 64 µg/mL.
